In ChEMBL document CHEMBL1130066, “Toward a novel metal-based chemotherapy against tropical diseases. 3. Synthesis and antimalarial activity in vitro and in vivo of the new gold-chloroquine complex [Au(PPh3)(CQ)]PF6” (J Med Chem, 1997):

Columns and labels:
Plasmodium falciparum [1] = assay: In vitro growth inhibition as IC50 against chloroquine-resistant Plasmodium falciparum FcB2; type: functional, organism-based
Plasmodium falciparum [2] = assay: In vitro growth inhibition as IC50 against chloroquine-resistant Plasmodium falciparum FcB1; type: functional, organism-based
Mus musculus [3] = assay: In vivo activity against Plasmodium berghei parasitaemia.; type: functional, organism-based
Mus musculus [4] = assay: In vivo activity against Plasmodium berghei parasitaemia; type: functional

In the case of “4N-(4-diethylamino-1-methylbutyl)-7-chloro-4-quinolinamine 1-N-[Au(PPh3)] compound with PF6- [listing 1 of 2 here]”, the IC50 (Plasmodium falciparum [1]) is reported as 23 nM and the IC50 (Plasmodium falciparum [2]) is reported as 5.1 nM.
“4N-(4-diethylamino-1-methylbutyl)-7-chloro-4-quinolinamine 1-N-[Au(PPh3)] compound with PF6- [listing 2 of 2 here]” was tested, and the Parasitemia (Mus musculus [3]) was 7%.
CCN(CC)CCCC(C)Nc1ccnc2cc(Cl)ccc12.O=P(O)(O)O.O=P(O)(O)O (centres undefined) [CHLOROQUINE PHOSPHATE] showed a Parasitemia (Mus musculus [4]) of 25%.
